In patent US12158464B2, “Methods for modeling disease tissue using three-dimensional tissue systems” (priority 2013, dated 2024):

Tests used:
[1] = tested on: human cardiac tissue strands (hESC, Hes2 derived cardiomyocytes); assay: Biorod drug testing: tissue beating pattern and contractile force by polymer wire deflection; type: cell-based; conditions: for response of human cardiac tissues to well-known drugs: summary statement
Procedure: Cardiomyocytes were derived from human embryonic stem cell lines (hESC, Hes2). Embryoid bodies (EBs) were differentiated to the cardiovascular lineage and disassociated as previously described in Device 1 Methods. Before cell seeding, micro-well surface was rinsed with 5% (w/v) Pluronic Acid (Sigma P2443) and then air dried in the bio-safety cabinet. hESC derived cardiomyocytes were suspended at 200 million/ml (unless specified otherwise) in Collagen Type I based gel (3.0 mg/ml of rat tail collagen type I (BD Biosciences) neutralized by 1N NaOH and 10×M199 media as described by the manufacturer) with the supplements of […], 1% (v/v) HEPES, 10% (v/v) Matrigel (BD Biosciences), and […]. Suspended cardiomyocytes were then seeded into the cell culture channel (2.5 μl per well). After 30 min incubation at 37° C. to induce the gelation, appropriate media were added. After seeding, cells were kept in culture for 7 days to allow collagen matrix remodeling and assembly around the wires. Cardiac tissue strands were kept in culture for up to 21 days with media change every 2-3 days. Preferably, the tissue strands should be kept in culture for at least 2 weeks to allow for maturation; however there is no limitation on the maximum culture duration. Cardiac tissue strands were seeded to observe the stability and reproducibility of tissue in long term culture. After seeding, brightfield images (see FIG. 39A for an example) of the tissue strands were taken every day (n=3 per group) using optical microscope (Olympus CKX41) and the diameters of the tissue strands at four distinct locations were analyzed with imageJ (see FIG. 39B for an example). Tissue strand lengths were also analyzed with same method.
Tissue contractile behavior tracing and measurement was carried out. POMac is auto-fluorescent at a wide range of wavelenths; therefore the wires were imaged with a fluorescence microscope under DAPI channel (e.g. 461 nm wavelength) to trace the bending movements of the wires. The POMac is auto-fluorescent at a wide range of wavelengths, including under FITC and Tritc channels. Images were taken at 25 frames per second (fps) (see FIG. 39C). Image sequences were analyzed with ImageJ software using tracking plugin. To calculate the forces originated from cardiac tissues, beam deflection formula with uniformly distributed load in the middle section was used here. […] The engineered cardiac tissues were paced at 2 Hz frequency. From this image sequence, contraction and relaxation time of beating can be estimated. […] Tissue stretching wires can be considered uniformly distributed Load, Wo (Load per force bearing length), which can be calculated with displacement of center point of wires in image sequence, and F can be calculated as well. […] Briefly, entire beam length was L. Section of wire with tissue wrapping around it was experiencing load. Here, the load was assumed to be evenly distributed throughout this section, and Wo was load per length. […] The distance between side of the tissue and a well wall is a, which was assumed equal for both sides. The deflection at center point was y.
Drug testing was carried out.

[2] = tested on: endothelialized AngioChip human cardiac tissue; conditions: 10 μM perfused through built-in vasculature, within 30 min
Procedure: Cardiac drug test. On day 7 of culture, the spontaneous contractions of the cardiac tissues were recorded as bright-field videos. […] After 30 min incubation, the spontaneous contractions of the cardiac tissues were recorded again as bright-field videos. The frequency of contraction was analyzed from the recorded videos with image J. DMSO was used to dissolve the drugs. The final concentration of DMSO in the culture media was diluted to less than 0.1% (v/v).

[3] = tested on: Hes2 hESC-derived cardiomyocyte tissue strands; conditions: Hes2 hESC-cardiomyocyte tissue strand; DI-4-ANEPPS imaging
Procedure: For human cardiac tissue strands, day 20 EBs generated as described above were incubated in collagenase type I (1 mg/ml; Sigma) and DNAse (1 mg/ml, CalBiochem) in Hank's Balanced Salt Solution (NaCl, 136 mM; NaHCO3, 4.16 mM; Na3PO4, 0.34 mM; KCl, 5.36 mM; KH2PO4, 0.44 mM; dextrose, 5.55 mM; HEPES, 5 mM) for 2 hr at 37° C. EBs were centrifuged (800 r.p.m., 5 min), incubated with trypsin (0.25%, Gibco) for 5 min at 37° C. and pipetted gently to dissociate the cells. After dissociation, cells were centrifuged (1,000 r.p.m., 5 min), counted and seeded at 0.5×10^6 cells/strand of 0.5 cm in length. This ratio was maintained for generation of longer tissue strands. […]
For optical mapping, tissue strands were incubated with a voltage sensitive dye (Di-4-ANEPPS 5 μM, Invitrogen) for 20 min at 37° C. in warm Tyrode's solution (NaCl 118 mM, KCl, 4.7 mM, CaCl2 1.25 mM, MgSO4 0.6 mM, KH2PO4 1.2 mM, NaHCO3 25 mM, glucose 6 mM; oxygenated by bubbling carbogen 95% O2, 5% CO2 for at least 20 minutes shortly before use). Dye fluorescence was recorded on a MVX-10 Olympus fluorescence microscope equipped with a high-speed CMOS camera (Ultima-L, Scimedia)^29-30. […] The fluorescence was excited using a mercury arc source (X-Cite Exacte) with green filter (Olympus U-MWIG2 filter cube). […]

[4] = tested on: hESC-derived cardiomyocytes (Hes2 cell line); assay: Calcium transient measurements in single cardiomyocytes dissociated from tissue strands; type: cell-based, human
Procedure: Calcium transient measurements were taken. Tissue strands were dissociated by incubation with collagenase and trypsin as described in detail above. The dissociated cardiomyocytes were plated onto growth factor free Matrigel (diluted 1:60 in RPMI media)-coated 25-mm microscope glass coverslips overnight. Cells were then incubated with 5 μM of fluo-4 acetoxymethyl ester (fluo-4 AM) in culture media for 2 hours at 37° C. Subsequently, cardiomyocytes were washed twice with dye-free medium and placed back into the incubator for 30 min. A laser scanning confocal microscope (Zeiss LSM 510) was used to measure the fluorescence intensity of fluo-4 AM. The coverslips containing the fluo-4 AM-loaded cardiomyocytes were moved onto a special chamber and tightly secured. Approximately 1.8-1.9 ml of culture medium was added into the chamber, which was placed on a temperature controlled-plate (37° C.) on the microscope. Fluo-4 was excited via an argon laser (488 nm) and emitted fluorescence was collected through a 505 nm emission filter. Changes in fluo-4 AM fluorescence intensity, which indicates transient fluctuation of cytosolic calcium concentration, were recorded in frame and line scan model. The images and fluorescence data were acquired through Zeiss software. The fluorescence data were analyzed with Origin 8.5 software. Fluorescence signals (F) were normalized to baseline fluorescence after loading fluo-4 AM. The rising phase of the signals was fitted by linear model while the decaying phase of the signals was fitted by ExpDecay with Offset model. Caffeine, Verapamil (Sigma) and Thapsigargin (Invitrogen) were directly added into the chamber that contained the cardiomyocytes during imaging at concentrations indicated in the figures.

[5] = tested on: hESC-derived CMs 3D tissues; type: cell-based, human
Procedure: Alternatively, to measure the force generated by the 3D engineered cardiac tissues, a bioreactor consisting of a PDMS tissue chamber capable of housing 8 micotissues was employed. […] Briefly, each well of the PDMS chamber had two posts which served as anchoring points for each cardiac tissue during gel compaction. Furthermore, by tracking a post's deflection, the force of contraction a cardiac tissue generated was determined. Cardiac tissues underwent 7 days of pre-culture followed by 7 days of treatment with endothelin-1, angiotensin II or isoproterenol. After the treatment, the contractile force of each cardiac tissue was determined by video recording, one at a time, the top surface of a post for each cardiac tissue while being paced at 0.5 or 1 Hz using CellSens software (Olympus). Each video was then exported as a series of Tiff images and opened in ImageJ. […] Using the method of superposition for a cantilever beam-partial uniform deflection, a point force was calculated and then normalized to the tissues cross sectional area (assumed circular) to determine the cardiac force per area.

[6] = tested on: hESC-CM biowires (Hes2); assay: Chronic drug exposure: ELISA of soluble BNP in conditioned media; type: cell-based, human
Procedure: (§1) After preculture for 7 days, biowires were randomly transferred to 6-well plates and cultured in StemPro-34 media in the absence or presence of Isoproterenol (100 nM), Angiotensin II (200 nM [17]) or Endothelin-1 (150 nM)(Sigma) for 7 days. This protocol was chosen to replicate the chronic treatment of mice as described. […] Isolated single cells were seeded on Matrigel-coated glass cover slips before cell area and calcium transient measurements were performed. ELISA. Quantification of soluble BNP from the conditioned media was performed using commercially available ELISA kits.

[7] = tested on: Hes2 hESC derived cardiomyocytes; type: cell-based, human; conditions: single cells dissociated at end of 7 days treatment, cardiac troponin T staining
Procedure: as §1, with “performed.” for “performed. ELISA. Quantification of soluble BNP from the conditioned media was performed using commercially available ELISA kits.”

[8] = tested on: hESC-CM biowires (Hes2); type: cell-based, human
Procedure: After preculture for 7 days, biowires were randomly transferred to 6-well plates and cultured in StemPro-34 media in the absence or presence of Isoproterenol (100 nM), Angiotensin II (200 nM [17]) or Endothelin-1 (150 nM)(Sigma) for 7 days. This protocol was chosen to replicate the chronic treatment of mice as described. […] Isolated single cells were seeded on Matrigel-coated glass cover slips before cell area and calcium transient measurements were performed. Immunostaining and Fluorescence Microscopy. Immunostaining was performed using the following antibodies: mouse anti-cTNT (1:100, Thermo Scientific; MS-295-P1), mouse anti-α-actinin (1:200, Abcam, ab9465), anti-mouse-Alexa Fluor 488 (1:400, Invitrogen, A21202), anti-rabbit-TRITC (1:400, Invitrogen, 81-6114). DAPI was used to counterstain nuclei. Phalloidin Alexa Fluor 660 (1:1000, Invitrogen, A22285) was used to detect actin fibers. The stained cells were visualized using a fluorescence microscope (Leica CTR6000) and images captured using the Leica Application Suite software. For confocal microscopy cells were visualized using a fluorescence confocal microscope (Zeiss LSM-510). Transmission Electron Microscopy (TEM). Tissue was fixed with 4% Paraformaldehyde, 1% Glutaraldehyde in 0.1 M PBS for at least 1 hr and washed 3 times with PBS pH 7.2. Post-fixation was done with 1% Osmium Tetraoxide in 0.1 M PBS, pH 7.2 for 1 hr and dehydrated using ethanol series from 25 to 100%. Tissue was infiltrated using Epon resin and polymerized in plastic dishes at 40° C. for 48 hr. Tissue was stained with Uranyl Acetate and Lead Citrate after sectioning. Imaging was performed at Hitachi H-7000 transmission electron microscope.

[9] = tested on: hESC-CM biowires (Hes2); assay: Chronic drug exposure of biowires: quantitative RT-PCR of fetal gene program; type: cell-based, human; conditions: 7 days treatment: ISO 100 nM, Et-1 150 nM, AngII 200 nM; vs untreated control
Procedure: as §1, with “performed.” for “performed. ELISA. Quantification of soluble BNP from the conditioned media was performed using commercially available ELISA kits.”
Quantitative RT-PCR. RT-PCR was performed as previously described. Total RNA was prepared with the High Pure RNA Isolation Kit (Roche) and treated with RNase-free DNase (Roche). RNA was reverse transcribed into cDNA using random hexamers and Oligo (dT) with SuperScript VILO (Invitrogen). RT-qPCR was performed on a LightCycler 480 (Roche) using LightCycler 480 SYBR Green I Master (Roche). Expression levels were normalized to the housekeeping genes TATA box binding protein (TBP) or Glyceraldehyde 3-phosphate dehydrogenase (GAPDH).

Cc1cccc(CCN2CCC(C(=O)c3ccc(NS(C)(=O)=O)cc3)CC2)n1 [E4301]
response of human cardiac tissues to well-known drugs [1]: responded appropriately

CNC[C@H](O)c1ccc(O)c(O)c1 [Epinephrine, epinephrine]
chronotropic response (frequency of spontaneous contraction) [2]: positive chronotropic response | spontaneous beating frequency [3]: increasing spontaneous beating frequency

COc1ccc(CCN(C)CCCC(C#N)(c2ccc(OC)c(OC)c2)C(C)C)cc1OC (stereo not drawn) [verapamil]
Ca2+ transients after blockage of L-type Ca2+ channels ([4]; cells from 6 Hz tissue strands): cessation in Ca^2+ transients

C[C@H]1O[C@@H](O[C@H]2[C@@H](O)C[C@H](O[C@H]3[C@@H](O)C[C@H](O[C@H]4CC[C@@]5(C)[C@H](CC[C@@H]6[C@@H]5C[C@@H](O)[C@]5(C)[C@@H](C7=CC(=O)OC7)CC[C@]65O)C4)O[C@@H]3C)O[C@@H]2C)C[C@H](O)[C@@H]1O [digoxin]
chronotropic response (frequency of spontaneous contraction) [2]: negative chronotropic response

endothelin-1 [Et-1]
force of contraction [5]: significantly reduced force of contraction | BNP in the conditioned media ([6]; chronic treatment): BNP can also be found in the conditioned media | increase in the secretion of BNP ([6]; day 2 post-treatment, media conditioned for 48 h): 5 fold | increase of BNP in the media ([6]; day 7, media conditioned for 24 h): 7 fold | increase in cell size [7]: 100% | contractile apparatus (transmission electron microscopy) [8]: significant absence of distinct Z-disks and the lack of a defined sarcomere structure | ANF and BNP gene expression (fetal gene program) [9]: no changes in gene expression

C/C=C(/C)C(=O)O[C@H]1C(C)=C2[C@H]([C@@H]1OC(=O)CCCCCCC)[C@@](C)(OC(C)=O)C[C@H](OC(=O)CCC)[C@@]1(O)[C@H]2OC(=O)[C@@]1(C)O [thapsigargin]
calcium transients after blockage of SERCA ([4]; cells from 6 Hz tissue strands): cessation of calcium transients with time

NC[C@H](O)c1ccc(O)c(O)c1 [Norepinephrine]
beating frequency ([1]; 10 μM): significant increased beating frequency | response of human cardiac tissues to well-known drugs [1]: responded appropriately

Cn1c(=O)c2c(ncn2C)n(C)c1=O [caffeine]
effect of caffeine added post blockage of L-type Ca2+ channels ([4]; cells from 6 Hz tissue strands, after verapamil or nifedipine): Ca^2+ release into the cytosol | Ca2+ transient amplitude intensity in response to caffeine ([4]; electrically stimulated cells vs non-stimulated controls, caffeine 5 mM): significantly higher amplitude intensity | response of cytosolic Ca2+ to caffeine ([4]; single cells from electrically stimulated tissue strands, 3 and 6 Hz conditions): inducing an increase in cytosolic Ca^2+ | response of cytosolic Ca2+ to caffeine ([4]; single cells from non-stimulated control tissue strands): none of the hESC-cardiomyocytes in non-stimulated controls were responsive

CC[C@H](C)[C@H](NC(=O)[C@H](Cc1ccc(O)cc1)NC(=O)[C@@H](NC(=O)[C@H](CCCNC(=N)N)NC(=O)[C@@H](N)CC(=O)O)C(C)C)C(=O)N[C@@H](Cc1cnc[nH]1)C(=O)N1CCC[C@H]1C(=O)N[C@@H](Cc1ccccc1)C(=O)O [AngII, angiotensin II]
force of contraction [5]: significantly reduced force of contraction | contractile apparatus (transmission electron microscopy) [8]: significant absence of distinct Z-disks and the lack of a defined sarcomere structure
